We go through three compounds from article PMC12473425, “Development and Evaluation of a Modified Fixed-Dose Combination Antihypertensive Tablet Containing S-Amlodipine Besylate: A Bioequivalence and Stability Study” (Pharmaceutics, 2025).

Molecules are shown by their SMILES. Where only a bound is given, the exact number is not on record here.

Data set [1] is described as follows: Compatibility study of each API alone or 1:1 (w/w) with excipients under stressed conditions, impurities by HPLC. The class given is physicochemical. Conditions: 60 ± 2 °C/80 ± 5% RH. How it is done:
We evaluated the compatibility between APIs and excipients, for which each API in […]® tablets was individually mixed in a 1:1 (w/w) ratio with excipients used in the formulation, as well as with commonly used tablet excipients selected based on their functional roles (e.g., diluents, binders, disintegrants, lubricants, etc.). […] The compatibility study was conducted in a temperature and humidity chamber (Sunil Eyela Co., Seongnam, Korea). Samples were withdrawn at predetermined intervals and analyzed for impurities (%). A HPLC system (Agilent Technologies, Inc. CA, USA) was used for the quantitative analysis of impurities. The column used was Symmetry C8 (100 mm × 4.6 mm, 3.5 μm, Waters Corp., Milford, CT, USA). Mobile phase A consisted of a mixture of phosphate buffer (pH 2.8) and acetonitrile at a ratio of […] prepared in a 1000 mL volumetric flask. The buffer was prepared by adjusting a 10% phosphoric acid solution to pH 2.8, filtered through a 0.45 μm membrane filter (Millipore; Billerica, MA, USA), and degassed before use. Mobile phase B consisted of a phosphate buffer (pH 2.8) and acetonitrile at a ratio of 600:1400 (v/v), which was similarly prepared and degassed before use. The mobile phases were delivered at a flow rate of 1.0 mL/min, the column temperature was maintained at 35 °C, and detection was performed at a wavelength of 250 nm.

Details of data set [2]: method as in PMID 21966165. The following applies: low solubility and high permeability; cited from earlier work.
Where [3] appears, read: hydrochlorothiazide compatibility, 1w.
Where [4] appears, read: hydrochlorothiazide compatibility, 2w.
[5] abbreviates: hydrochlorothiazide compatibility, 4w.
The mark [6] stands for this setting: hydrochlorothiazide compatibility, Initial.
The mark [7] stands for this setting: olmesartan medoxomil compatibility, 1w.
Where [8] appears, read: olmesartan medoxomil compatibility, 2w.
Where [9] appears, read: olmesartan medoxomil compatibility, 4w.
Where [10] appears, read: olmesartan medoxomil compatibility, Initial.
Setting [11] is: S-amlodipine besylate compatibility, 1w.
Setting [12] is: S-amlodipine besylate compatibility, 2w.
Where [13] appears, read: S-amlodipine besylate compatibility, 4w.

Turning to `NS(=O)(=O)c1cc2c(cc1Cl)NCNS2(=O)=O` [Hydrochlorothiazide], the “Benzothiadiazine Related Compound A” value in data set [1] (setting [3]), in data set [1] (setting [4]), in data set [1] (setting [5]) and in data set [1] (setting [6]) was “<LOQ” throughout. In addition, the “Total Impurity” value in data set [1] (setting [3]) stood at 0.08%; in data set [1] (setting [4]), 0.08%; in data set [1] (setting [5]), 0.08%; in data set [1] (setting [6]), 0.10%. Also, the “Unknown Impurity” value in data set [1] (setting [3]) is 0.08%; in data set [1] (setting [4]), 0.08%; in data set [1] (setting [5]) it was 0.08%; in data set [1] (setting [6]), 0.10%.

Regarding `CCCc1nc(C(C)(C)O)c(C(=O)OCc2oc(=O)oc2C)n1Cc1ccc(-c2ccccc2-c2nnn[nH]2)cc1` [Olmesartan medoxomil], the RNH-8276 result in data set [1] (setting [7]), in data set [1] (setting [8]) and in data set [1] (setting [9]) was “<LOQ” throughout. Further, the “Total Impurity” value is on record as “<LOQ” in data set [1] (setting [7]), “<LOQ” in data set [1] (setting [8]), 0.05% in data set [1] (setting [9]) and “<LOQ” in data set [1] (setting [10]). Besides, the “Unknown Impurity” value in data set [1] (setting [7]) is “<LOQ”; in data set [1] (setting [8]), “<LOQ”; in data set [1] (setting [9]) it was 0.05%; in data set [1] (setting [10]), “<LOQ”. In addition, in data set [2], the “Biopharmaceutics Classification System (BCS) class” value is recorded as “Class II”.

Turning to `CCOC(=O)C1=C(COCCN)NC(C)=C(C(=O)OC)[C@@H]1c1ccccc1Cl.O.O.O=S(=O)(O)c1ccccc1` [S-amlodipine besylate, S-amlodipine besylate dihydrate], in data set [1] (setting [11]), the “Amlodipine Related Compound A” value is listed as “<LOQ”, the “Total Impurity” value is reported as “<LOQ” and the “Unknown Impurity” value is reported as “<LOQ”. Besides, in data set [1] (setting [12]), the “Amlodipine Related Compound A” value is “<LOQ”, the “Total Impurity” value is “<LOQ” and the “Unknown Impurity” value is reported as “<LOQ”. Besides, in data set [1] (setting [13]), the “Amlodipine Related Compound A” value turned out to be 0.06%, the “Total Impurity” value was found to be 0.30% and the “Unknown Impurity” value is given as 0.16%.
